# Results as given in US20130011427A1 (priority 2009, published 2013).
# Tests used:
# [1] = tested on: HLA-DR4/huCD4 (DRB1*0401) Tg mice, CD8-depleted splenocytes; format: cell-based, mouse
# [2] = tested on: HLA-A2.1 (HLA-A*0201) Tg mice, CD4-depleted splenocytes; format: cell-based, mouse
# [3] = target: HLA-DR3 (HLA-DRA*0101 / HLA-DRB1*0301) (human); assay: cell-based or functional assay
# [4] = tested on: HLA-DR2 (DRB1*1501) Tg mice, CD8-depleted splenocytes; format: cell-based, mouse
# [5] = tested on: HLA-DR3 (DRB1*0301) Tg mice, CD8-depleted splenocytes; format: cell-based, mouse
# [6] = target: HLA-DR4 (HLA-DRA*0101 / HLA-DRB1*0401) (human); assay: cell-based or functional assay
# [7] = target: HLA-DR2 (chimeric HLA-DRA1*0101/DRB1*1501 with I-E domains) (human; murine) (UniProt Q8BHN5); assay: cell-based or functional assay
# Chain of UniProt Q8BHN5 (Q8BHN5 whole entry, stated change not applied): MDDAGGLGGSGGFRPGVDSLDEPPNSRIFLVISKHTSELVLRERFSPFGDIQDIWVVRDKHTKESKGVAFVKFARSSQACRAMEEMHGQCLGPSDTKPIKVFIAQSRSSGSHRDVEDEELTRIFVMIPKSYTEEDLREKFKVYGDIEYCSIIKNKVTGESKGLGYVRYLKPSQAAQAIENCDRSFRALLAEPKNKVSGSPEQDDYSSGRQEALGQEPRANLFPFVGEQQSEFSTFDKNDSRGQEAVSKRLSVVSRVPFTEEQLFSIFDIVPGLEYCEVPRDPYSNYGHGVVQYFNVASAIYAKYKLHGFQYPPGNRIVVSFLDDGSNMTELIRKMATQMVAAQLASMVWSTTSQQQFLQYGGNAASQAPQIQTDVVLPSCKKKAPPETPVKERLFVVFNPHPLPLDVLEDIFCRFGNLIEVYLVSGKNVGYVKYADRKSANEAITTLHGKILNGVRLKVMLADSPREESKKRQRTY
substance,measurement,setting,value
RQELRCGSGVFIHNDVEA [NS1 10-27],"T cell activation of HLA transgenic mice (SFC/10^6) IFN-γ ELISpot, DR4",[1],63 ± 8 SFC/10^6
LATVSDLSTKAACPTM [E 62-77],"T cell activation of HLA transgenic mice (SFC/10^6) IFN-γ ELISpot, A2",[2],465 ± 343 SFC/10^6
same,"T cell activation of HLA transgenic mice (SFC/10^6) IFN-γ ELISpot, DR4",[1],47 ± 4 SFC/10^6
EKLQLKGTTYGVCSKAFK [E 293-310],"T cell activation of HLA transgenic mice (SFC/10^6) IFN-γ ELISpot, DR4",[1],47 ± 5 SFC/10^6
NWVPTGRTTWSIHAGGEW [NS5 791-808],"T cell activation of HLA transgenic mice (SFC/10^6) IFN-γ ELISpot, DR4",[1],78 ± 17 SFC/10^6
WNV NS3 560-574 peptide,IFN-γ ELISpot (SFC/10^6),[3],225 SFC/10^6
LGALLLWMGINARDRSIA [E 465-482],"T cell activation of HLA transgenic mice (SFC/10^6) IFN-γ ELISpot, A2",[2],310 ± 186 SFC/10^6
same,"T cell activation of HLA transgenic mice (SFC/10^6) IFN-γ ELISpot, DR2",[4],490 ± 64 SFC/10^6
same,"T cell activation of HLA transgenic mice (SFC/10^6) IFN-γ ELISpot, DR3",[5],330 ± 91 SFC/10^6
WNV NS4b 101-118 peptide,IFN-γ ELISpot (SFC/10^6),[6],134 SFC/10^6
VAAEMAEALRGLPIRY [NS3 228-243],"T cell activation of HLA transgenic mice (SFC/10^6) IFN-γ ELISpot, DR4",[1],46 ± 9 SFC/10^6
VFTSVGKAVHQVFGGAFR [E 434-451],"T cell activation of HLA transgenic mice (SFC/10^6) IFN-γ ELISpot, DR2",[4],116 ± 5 SFC/10^6
same,"T cell activation of HLA transgenic mice (SFC/10^6) IFN-γ ELISpot, DR3",[5],79 ± 19 SFC/10^6
WNV E 135-152 peptide,IFN-γ ELISpot (SFC/10^6),[3],86 SFC/10^6
LAVGGVLLFLSVNVHA [E 486-501],"T cell activation of HLA transgenic mice (SFC/10^6) IFN-γ ELISpot, A2",[2],323 ± 173 SFC/10^6
same,"T cell activation of HLA transgenic mice (SFC/10^6) IFN-γ ELISpot, DR2",[4],214 ± 27 SFC/10^6
same,"T cell activation of HLA transgenic mice (SFC/10^6) IFN-γ ELISpot, DR3",[5],244 ± 16 SFC/10^6
WNV NS5 771-788 peptide,IFN-γ ELISpot (SFC/10^6),[6],135 SFC/10^6
GRTILKENIKYEVAIFVH [E 127-144],"T cell activation of HLA transgenic mice (SFC/10^6) IFN-γ ELISpot, DR2",[4],120 ± 1 SFC/10^6
same,"T cell activation of HLA transgenic mice (SFC/10^6) IFN-γ ELISpot, DR3",[5],198 ± 21 SFC/10^6
SGCWYGMEIRPQRHDEK [NS1 327-343],"T cell activation of HLA transgenic mice (SFC/10^6) IFN-γ ELISpot, DR4",[1],78 ± 4 SFC/10^6
WNV NS3 228-243 peptide,IFN-γ ELISpot (SFC/10^6),[6],46 SFC/10^6
HKSGSSIGKAFTTTLKGA [E 398-415],"T cell activation of HLA transgenic mice (SFC/10^6) IFN-γ ELISpot, DR2",[4],168 ± 18 SFC/10^6
same,"T cell activation of HLA transgenic mice (SFC/10^6) IFN-γ ELISpot, DR3",[5],88 ± 1 SFC/10^6
RLNDTWKLERAVLGEVK [NS1 205-221],"T cell activation of HLA transgenic mice (SFC/10^6) IFN-γ ELISpot, DR4",[1],61 ± 15 SFC/10^6
WNV E 54-71 peptide,IFN-γ ELISpot (SFC/10^6),[6],205 SFC/10^6
WNV NS4a 15-31 peptide,IFN-γ ELISpot (SFC/10^6),[7],278 SFC/10^6
same,IFN-γ ELISpot (SFC/10^6),[6],187 SFC/10^6
WNV NS3 492-509 peptide,IFN-γ ELISpot (SFC/10^6),[3],216 SFC/10^6
FRSLFGGMSWITQGLLGA [E 450-467],"T cell activation of HLA transgenic mice (SFC/10^6) IFN-γ ELISpot, A2",[2],205 ± 145 SFC/10^6
same,"T cell activation of HLA transgenic mice (SFC/10^6) IFN-γ ELISpot, DR2",[4],261 ± 13 SFC/10^6
same,"T cell activation of HLA transgenic mice (SFC/10^6) IFN-γ ELISpot, DR3",[5],104 ± 21 SFC/10^6
WNV E 426-443 peptide,IFN-γ ELISpot (SFC/10^6),[3],83 SFC/10^6
GCWGQVTLTVTVTAATLL [NS4b 101-118],"T cell activation of HLA transgenic mice (SFC/10^6) IFN-γ ELISpot, DR4",[1],134 ± 8 SFC/10^6
ALLTPGLRCLNLDVYRIL [NS2a 160-177],"T cell activation of HLA transgenic mice (SFC/10^6) IFN-γ ELISpot, A2",[2],63 ± 18 SFC/10^6
same,"T cell activation of HLA transgenic mice (SFC/10^6) IFN-γ ELISpot, DR3",[5],59 ± 3 SFC/10^6
WNV NS1 205-221 peptide,IFN-γ ELISpot (SFC/10^6),[6],61 SFC/10^6
WNV NS1 10-27 peptide,IFN-γ ELISpot (SFC/10^6),[6],63 SFC/10^6
AEVRSYCYLATVSDLSTK [E 54-71],"T cell activation of HLA transgenic mice (SFC/10^6) IFN-γ ELISpot, DR4",[1],205 ± 56 SFC/10^6
VHQVFGGAFRSLFGGMSW [E 442-459],"T cell activation of HLA transgenic mice (SFC/10^6) IFN-γ ELISpot, A2",[2],442 ± 313 SFC/10^6
same,"T cell activation of HLA transgenic mice (SFC/10^6) IFN-γ ELISpot, DR2",[4],117 ± 5 SFC/10^6
same,"T cell activation of HLA transgenic mice (SFC/10^6) IFN-γ ELISpot, DR3",[5],101 ± 15 SFC/10^6
WNV NS5 704-721 peptide,IFN-γ ELISpot (SFC/10^6),[6],65 SFC/10^6
HFMGKTWEALDTMYVVA [NS4a 15-31],"T cell activation of HLA transgenic mice (SFC/10^6) IFN-γ ELISpot, DR2",[4],278 ± 26 SFC/10^6
same,"T cell activation of HLA transgenic mice (SFC/10^6) IFN-γ ELISpot, DR4",[1],187 ± 20 SFC/10^6
GAGVMVEGVFHTLWHTTK [NS3 37-54],"T cell activation of HLA transgenic mice (SFC/10^6) IFN-γ ELISpot, DR2",[4],149 ± 13 SFC/10^6
same,"T cell activation of HLA transgenic mice (SFC/10^6) IFN-γ ELISpot, DR3",[5],368 ± 66 SFC/10^6
WNV E 99-113 peptide,IFN-γ ELISpot (SFC/10^6),[3],79 SFC/10^6
WNV NS3 6-23 peptide,IFN-γ ELISpot (SFC/10^6),[6],43 SFC/10^6
WNV prM 121-138 peptide,IFN-γ ELISpot (SFC/10^6),[7],130 SFC/10^6
same,IFN-γ ELISpot (SFC/10^6),[6],56 SFC/10^6
WNV NS1 18-35 peptide,IFN-γ ELISpot (SFC/10^6),[3],52 SFC/10^6
LVKTESWILRNPGYALVA [prM 121-138],"T cell activation of HLA transgenic mice (SFC/10^6) IFN-γ ELISpot, DR2",[4],130 ± 23 SFC/10^6
same,"T cell activation of HLA transgenic mice (SFC/10^6) IFN-γ ELISpot, DR4",[1],56 ± 6 SFC/10^6
WNV E 384-399 peptide,IFN-γ ELISpot (SFC/10^6),[3],87 SFC/10^6
WNV NS3 480-496 peptide,IFN-γ ELISpot (SFC/10^6),[3],121 SFC/10^6
LVQSYGWNIVTMKSGVDV [NS5 115-132],"T cell activation of HLA transgenic mice (SFC/10^6) IFN-γ ELISpot, DR3",[5],79 ± 23 SFC/10^6
YFHRRDLRLMANAICSAV [NS5 771-788],"T cell activation of HLA transgenic mice (SFC/10^6) IFN-γ ELISpot, DR4",[1],135 ± 47 SFC/10^6
